The target in data set [1] is T1, MANEA-Δ97 (human endo-α-1,2-mannosidase catalytic domain, GH99) (Homo sapiens, UniProt Q5SRI9).
T1 sequence (Q5SRI9 98-462): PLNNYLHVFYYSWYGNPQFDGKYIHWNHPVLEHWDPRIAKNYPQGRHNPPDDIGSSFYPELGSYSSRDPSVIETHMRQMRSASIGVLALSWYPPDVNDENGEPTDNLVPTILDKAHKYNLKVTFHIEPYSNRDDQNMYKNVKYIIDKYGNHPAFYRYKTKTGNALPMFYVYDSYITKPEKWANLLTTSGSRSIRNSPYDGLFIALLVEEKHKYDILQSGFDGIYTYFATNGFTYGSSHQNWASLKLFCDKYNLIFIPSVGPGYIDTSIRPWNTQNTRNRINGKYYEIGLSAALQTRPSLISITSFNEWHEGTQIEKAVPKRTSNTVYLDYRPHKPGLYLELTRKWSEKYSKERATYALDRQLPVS
The data set is described as follows: isothermal titration calorimetry. In kind it is binding.

Data set [2] addresses T1, MANEA-Δ97 (human endo-α-1,2-mannosidase catalytic domain, GH99). The data set is described as follows: X-ray crystal structure. Format: binding. Particulars: ternary complex with GlcIFG; +1/+2 subsites.
Substrate in the data set “purified protein”: CO[C@H]1O[C@H](CO)[C@@H](O)[C@H](O)[C@@H]1O[C@H]1O[C@H](CO)[C@@H](O)[C@H](O)[C@@H]1O[C@H]1O[C@H](CO)[C@@H](O)[C@H](O[C@H]2O[C@H](CO)[C@@H](O)[C@H](O)[C@H]2O)[C@@H]1O
The data set is described as follows: purified protein. As to conditions: α-mannosidase-coupled release of mannose.

These results are taken from paper PMC7703563 (Proceedings of the National Academy of Sciences of the …, 2020).

A word on the Kd: it is the concentration at which binding is half-saturated. Low values mean tighter binding, high ones weaker binding. In the case of `OC[C@H]1NC[C@@H](O)[C@@H](O[C@H]2O[C@H](CO)[C@@H](O)[C@H](O)[C@H]2O)[C@@H]1O` [GlcDMJ], the Kd in data set [1] worked out at 1020 nM.

`OC[C@H]1O[C@H](O[C@@H]2C(O)O[C@H](CO)[C@@H](O)[C@@H]2O)[C@@H](O)[C@@H](O)[C@@H]1O` (stereo partly drawn) [α-1,2-mannobiose]: the X-ray crystal structure entry in data set [2] is “a ternary complex with GlcIFG and α-1,2-mannobiose”.

B1: MANEA-Δ97 (human endo-α-1,2-mannosidase catalytic domain, GH99) (Homo sapiens) (protein)
chain: T1 sequence (Q5SRI9 98-462)
The term Km denotes the concentration of substrate that gives half-maximal velocity. The term kcat denotes the number of substrate molecules converted per active site and unit of time at saturation. On to B1, for which, in the data set “purified protein”, the Km is 426 ± 33 µM and the kcat was 0.462 ± 0.0167 s⁻¹.
